According to US9266892B2, “Fused pyrazoles as FGFR inhibitors” (Incyte Corporation, priority 2012, dated 2016):
pIC50: −log10 of the molar value.

Experiments:
Type in all cases: biochemical
FGFR2 = biological target: T1, FGFR2 (Homo sapiens, UniProt P21802); experiment: FGFR Enzymatic Assay (FRET peptide phosphorylation), FGFR2; settings: FGFR2 0.01 nM, ATP 100 μM
T1 construct: purchased Millipore or Invitrogen
Experimental: (§1) The inhibitor potency of the Example compounds was measured in an enzyme assay that measures peptide phosphorylation using FRET measurements to detect product formation. Inhibitors were serially diluted in DMSO and a volume of 0.5 μL was transferred to the wells of a 384-well plate. For FGFR3, a 10 μL volume of FGFR3 enzyme (Millipore) diluted in assay buffer (50 mM HEPES, 10 mM MgCl2, 1 mM EGTA, 0.01% Tween-20, 5 mM DTT, pH 7.5) was added to the plate and pre-incubated for 5-10 minutes. Appropriate controls (enzyme blank and enzyme with no inhibitor) were included on the plate. The assay was initiated by the addition of a 10 μL solution containing biotinylated EQEDEPEGDYFEWLE peptide substrate (SEQ ID NO: 1) and ATP (final concentrations of 500 nM and 140 μM respectively) in assay buffer to the wells. The plate was incubated at 25° C. for 1 hr. The reactions were ended with the addition of 10 μL/well of quench solution (50 mM Tris, 150 mM NaCl, 0.5 mg/mL BSA, pH˜7.8, 30 mM EDTA with Perkin Elmer Lance Detection Reagents at 3.75 nM Eu-antibody PY20 and 180 nM APC-Streptavidin). The plate was allowed to equilibrate for 1 hour before scanning the wells on a PheraStar plate reader (BMG Labtech). The enzymes were purchased from Millipore or Invitrogen.
(§2) FGFR1 and FGFR2 were measured under equivalent conditions with the following changes in enzyme and ATP concentrations: FGFR1, 0.02 nM and 210 μM, respectively and FGFR2, 0.01 nM and 100 μM, respectively.
(§3) GraphPad prism3 was used to analyze the data. The IC50 values were derived by fitting the data to the equation for a sigmoidal dose-response with a variable slope. Y=Bottom+(Top−Bottom)/(1+10^((Log IC50−X)*HillSlope)) where X is the logarithm of concentration and Y is the response.

FGFR3 = biological target: T2, FGFR3 (Homo sapiens, UniProt P22607); experiment: FGFR Enzymatic Assay (FRET peptide phosphorylation), FGFR3; settings: ATP 140 μM, 25° C. for 1 hr
T2 construct: purchased Millipore
T2 sequence (P22607 23-806): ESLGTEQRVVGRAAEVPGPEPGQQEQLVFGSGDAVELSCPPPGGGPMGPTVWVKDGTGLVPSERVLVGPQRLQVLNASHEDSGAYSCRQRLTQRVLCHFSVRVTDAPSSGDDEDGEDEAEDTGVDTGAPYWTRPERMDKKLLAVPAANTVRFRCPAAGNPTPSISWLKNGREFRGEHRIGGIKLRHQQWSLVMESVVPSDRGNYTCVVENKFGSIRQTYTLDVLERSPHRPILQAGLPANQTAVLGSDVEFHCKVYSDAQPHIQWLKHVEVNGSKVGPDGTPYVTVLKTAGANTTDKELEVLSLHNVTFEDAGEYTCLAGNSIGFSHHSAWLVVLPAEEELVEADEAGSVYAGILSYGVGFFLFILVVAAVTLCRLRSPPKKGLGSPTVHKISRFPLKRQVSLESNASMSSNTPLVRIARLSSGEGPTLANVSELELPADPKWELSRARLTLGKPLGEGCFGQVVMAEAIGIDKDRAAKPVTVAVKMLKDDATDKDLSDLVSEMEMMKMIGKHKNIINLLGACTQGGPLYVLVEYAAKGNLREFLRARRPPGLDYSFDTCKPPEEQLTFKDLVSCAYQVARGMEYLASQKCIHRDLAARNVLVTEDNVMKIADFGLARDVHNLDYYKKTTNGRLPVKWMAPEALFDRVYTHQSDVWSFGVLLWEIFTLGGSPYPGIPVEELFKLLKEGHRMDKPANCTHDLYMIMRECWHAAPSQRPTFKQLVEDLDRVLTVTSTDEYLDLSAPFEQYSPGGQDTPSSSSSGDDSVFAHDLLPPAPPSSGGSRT
Experimental: as §1, §3

FGFR1 = biological target: T3, FGFR1 (Homo sapiens, UniProt P11362); experiment: FGFR Enzymatic Assay (FRET peptide phosphorylation), FGFR1; settings: FGFR1 0.02 nM, ATP 210 μM
T3 construct: purchased Millipore or Invitrogen
T3 sequence (P11362 22-822): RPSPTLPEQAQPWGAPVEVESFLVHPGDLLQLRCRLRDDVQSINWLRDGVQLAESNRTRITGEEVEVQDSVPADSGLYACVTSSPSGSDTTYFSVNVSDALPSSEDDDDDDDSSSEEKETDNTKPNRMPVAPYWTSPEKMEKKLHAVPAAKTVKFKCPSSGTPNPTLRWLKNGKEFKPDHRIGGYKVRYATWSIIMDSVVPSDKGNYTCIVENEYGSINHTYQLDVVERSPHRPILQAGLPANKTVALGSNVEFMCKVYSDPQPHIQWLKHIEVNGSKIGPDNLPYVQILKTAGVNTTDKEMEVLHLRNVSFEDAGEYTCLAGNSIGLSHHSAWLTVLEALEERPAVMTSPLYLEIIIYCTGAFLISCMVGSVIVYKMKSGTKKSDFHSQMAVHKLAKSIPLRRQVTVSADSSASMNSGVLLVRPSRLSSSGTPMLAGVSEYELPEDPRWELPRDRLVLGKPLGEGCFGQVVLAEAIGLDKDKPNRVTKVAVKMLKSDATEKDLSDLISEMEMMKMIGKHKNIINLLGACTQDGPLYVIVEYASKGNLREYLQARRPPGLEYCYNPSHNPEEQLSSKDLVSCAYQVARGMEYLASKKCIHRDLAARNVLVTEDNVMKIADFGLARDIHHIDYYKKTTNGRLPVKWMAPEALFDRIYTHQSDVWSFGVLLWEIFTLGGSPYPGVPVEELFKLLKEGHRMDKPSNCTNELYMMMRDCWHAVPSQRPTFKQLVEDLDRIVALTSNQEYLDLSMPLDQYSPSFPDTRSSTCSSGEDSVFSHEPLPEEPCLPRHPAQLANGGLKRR
Experimental: as §1, §2, §3

Measured: pIC50

T1 sequence (P21802 22-821): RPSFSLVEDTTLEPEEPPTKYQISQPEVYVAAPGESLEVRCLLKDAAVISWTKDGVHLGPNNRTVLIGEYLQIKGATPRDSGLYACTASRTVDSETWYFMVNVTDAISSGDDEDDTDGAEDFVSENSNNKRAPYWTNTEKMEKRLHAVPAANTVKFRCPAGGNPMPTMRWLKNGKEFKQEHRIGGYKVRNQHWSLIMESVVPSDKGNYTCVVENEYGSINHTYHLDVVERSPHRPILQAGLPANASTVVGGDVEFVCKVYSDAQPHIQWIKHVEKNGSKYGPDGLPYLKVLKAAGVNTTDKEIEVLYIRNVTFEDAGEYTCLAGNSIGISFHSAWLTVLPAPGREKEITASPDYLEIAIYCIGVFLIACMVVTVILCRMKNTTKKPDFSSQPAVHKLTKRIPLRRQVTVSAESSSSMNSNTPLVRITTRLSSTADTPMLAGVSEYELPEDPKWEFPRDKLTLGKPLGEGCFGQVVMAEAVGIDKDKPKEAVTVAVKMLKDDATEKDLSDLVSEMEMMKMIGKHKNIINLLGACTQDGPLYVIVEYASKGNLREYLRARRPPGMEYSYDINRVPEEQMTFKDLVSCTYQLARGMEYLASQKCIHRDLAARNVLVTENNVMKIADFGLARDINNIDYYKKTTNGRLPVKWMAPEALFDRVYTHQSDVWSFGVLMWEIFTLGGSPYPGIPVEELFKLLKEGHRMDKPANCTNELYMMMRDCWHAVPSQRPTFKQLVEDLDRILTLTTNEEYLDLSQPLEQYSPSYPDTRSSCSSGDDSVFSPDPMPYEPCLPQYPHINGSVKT

COc1cc(OC)c(Cl)c(-c2cc3[nH]nc(-c4cnn(CC(=O)N5CCC(OC)C5)c4)c3cn2)c1Cl (stereo not drawn) [Example 45, 6-(2,6-Dichloro-3,5-dimethoxyphenyl)-3-{1-[2-(3-methoxypyrrolidin-1-yl)-2-oxoethyl]-1H-pyrazol-4-yl}-1H-pyrazolo[4,3-c]pyridine]
> 7.00: all assays above

COc1cc(OC)c(Cl)c(-c2ncc3c(-c4cnn(C(C)C#N)c4)n[nH]c3n2)c1Cl (stereo not drawn) [Example 73, 2-{4-[6-(2,6-Dichloro-3,5-dimethoxyphenyl)-1H-pyrazolo[3,4-d]pyrimidin-3-yl]-1H-pyrazol-1-yl}propanenitrile]
> 7.00: all assays above

COc1cc(OC)c(Cl)c(-c2ncc3c(-c4ccc5c(c4)CCO5)n[nH]c3n2)c1Cl [Example 86, 6-(2,6-Dichloro-3,5-dimethoxyphenyl)-3-(2,3-dihydro-1-benzofuran-5-yl)-1H-pyrazolo[3,4-d]pyrimidine]
> 7.00: all assays above

COc1cc(OC)c(F)c(-c2cc3[nH]nc(-c4ccc5c(c4)CN([C@H]4CC[C@@H](O)CC4)C5=O)c3cn2)c1F [Example 61, 5-[6-(2,6-Difluoro-3,5-dimethoxyphenyl)-1H-pyrazolo[4,3-c]pyridin-3-yl]-2-(cis-4-hydroxycyclohexyl)isoindolin-1-one]
> 7.00: all assays above

COc1cc(OC)c(F)c(-c2cc3[nH]nc(-c4ccc5c(c4)CN(CC(C)O)C5=O)c3cn2)c1F (stereo not drawn) [Example 64, 5-[6-(2,6-Difluoro-3,5-dimethoxyphenyl)-1H-pyrazolo[4,3-c]pyridin-3-yl]-2-(2-hydroxypropyl)isoindolin-1-one]
> 7.00: all assays above

COc1cc(OC)c(Cl)c(-c2cc3[nH]nc(-c4ccc5c(c4)COC5=O)c3cn2)c1Cl [Example 32, 5-[6-(2,6-Dichloro-3,5-dimethoxyphenyl)-1H-pyrazolo[4,3-c]pyridin-3-yl]-2-benzofuran-1(3H)-one]
> 7.00: all assays above

COc1cc(OC)c(F)c(-c2cc3[nH]nc(-c4ccc5c(c4)CN(CC(F)(F)F)C5=O)c3cn2)c1F [Example 60, 5-[6-(2,6-Difluoro-3,5-dimethoxyphenyl)-1H-pyrazolo[4,3-c]pyridin-3-yl]-2-(2,2,2-trifluoroethyl)isoindolin-1-one]
> 7.00: all assays above

COc1cc(OC)c(Cl)c(-c2cc3[nH]nc(-c4ccc(OCC(=O)N(C)C)c(C)c4)c3cn2)c1Cl [Example 29, 2-{4-[6-(2,6-Dichloro-3,5-dimethoxyphenyl)-1H-pyrazolo[4,3-c]pyridin-3-yl]-2-methylphenoxy}-N,N-dimethylacetamide]
> 7.00: all assays above

COc1cc(OC)c(F)c(-c2ncc3c(-c4ccc5c(c4)CCN(S(C)(=O)=O)C5)n[nH]c3n2)c1F [Example 13, 6-[6-(2,6-Difluoro-3,5-dimethoxyphenyl)-1H-pyrazolo[3,4-d]pyrimidin-3-yl]-2-(methylsulfonyl)-1,2,3,4-tetrahydroisoquinoline]
> 7.00: all assays above

COc1cc(OC)c(F)c(-c2ncc3c(-c4ccc5c(c4)CN(C4CC4)C5=O)n[nH]c3n2)c1F [Example 21, 2-Cyclopropyl-5-[6-(2,6-difluoro-3,5-dimethoxyphenyl)-1H-pyrazolo[3,4-d]pyrimidin-3-yl]isoindolin-1-one]
> 7.00: all assays above

COCCNC(=O)Cn1cc(-c2n[nH]c3cc(-c4c(Cl)c(OC)cc(OC)c4Cl)ncc23)cn1 [Example 46, 2-{4-[6-(2,6-Dichloro-3,5-dimethoxyphenyl)-1H-pyrazolo[4,3-c]pyridin-3-yl]-1H-pyrazol-1-yl}-N-(2-methoxyethyl)acetamide]
> 7.00: all assays above

COCCN1Cc2cc(-c3n[nH]c4cc(-c5c(F)c(OC)cc(OC)c5F)ncc34)ccc2C1=O [Example 58, 5-[6-(2,6-Difluoro-3,5-dimethoxyphenyl)-1H-pyrazolo[4,3-c]pyridin-3-yl]-2-(2-methoxyethyl)isoindolin-1-one]
> 7.00: all assays above

COc1cc(OC)c(Cl)c(-c2cc3[nH]nc(-c4ccc(OCCN(C)C)cc4)c3cn2)c1Cl [Example 35, 2-{4-[6-(2,6-Dichloro-3,5-dimethoxyphenyl)-1H-pyrazolo[4,3-c]pyridin-3-yl]phenoxy}-N,N-dimethylethanamine]
> 7.00: all assays above

CCN1Cc2cc(-c3n[nH]c4cc(-c5c(F)c(OC)cc(OC)c5Cl)ncc34)ccc2C1=O [Example 69, 5-[6-(2-chloro-6-fluoro-3,5-dimethoxyphenyl)-1H-pyrazolo[4,3-c]pyridin-3-yl]-2-ethylisoindolin-1-one]
> 7.00: all assays above

COc1cc(OC)c(Cl)c(-c2cc3[nH]nc(/C=C/c4cnn(CCO)c4)c3cn2)c1Cl [Example 50, 2-(4-{(E)-2-[6-(2,6-Dichloro-3,5-dimethoxyphenyl)-1H-pyrazolo[4,3-c]pyridin-3-yl]vinyl}-1H-pyrazol-1-yl)ethanol]
> 7.00: all assays above

COc1cc(OC)c(Cl)c(-c2cc3[nH]nc(-c4cnn(C(C)C#N)c4)c3cn2)c1Cl (stereo not drawn) [Example 33, 2-{4-[6-(2,6-Dichloro-3,5-dimethoxyphenyl)-1H-pyrazolo[4,3-c]pyridin-3-yl]-1H-pyrazol-1-yl}propanenitrile]
> 7.00: all assays above

CNC(=O)Cn1cc(-c2n[nH]c3cc(-c4c(Cl)c(OC)cc(OC)c4Cl)ncc23)cn1 [Example 36, 2-{4-[6-(2,6-Dichloro-3,5-dimethoxyphenyl)-1H-pyrazolo[4,3-c]pyridin-3-yl]-1H-pyrazol-1-yl}-N-methylacetamide]
> 7.00: all assays above

COc1cc(OC)c(F)c(-c2ncc3c(-c4ccc(N5CCN(C)CC5)cc4)n[nH]c3n2)c1F [Example 17, 6-(2,6-Difluoro-3,5-dimethoxyphenyl)-3-[4-(4-methylpiperazin-1-yl)phenyl]-1H-pyrazolo[3,4-d]pyrimidine]
> 7.00: all assays above

COc1cc(OC)c(F)c(-c2ncc3c(-c4ccc5c(c4)CC(C(=O)N(C)C)O5)n[nH]c3n2)c1F (single isomer, unassigned) [Example 5, 5-[6-(2,6-Difluoro-3,5-dimethoxyphenyl)-1H-pyrazolo[3,4-d]pyrimidin-3-yl]-N,N-dimethyl-2,3-dihydro-1-benzofuran-2-carboxamide]
> 7.00: all assays above

COc1cc(OC)c(F)c(-c2ncc3c(-c4ccc5c(c4)CC(C(=O)N4CCN(C)CC4)O5)n[nH]c3n2)c1F (stereo not drawn) [Example 7, 6-(2,6-Difluoro-3,5-dimethoxyphenyl)-3-{2-[(4-methylpiperazin-1-yl)carbonyl]-2,3-dihydro-1-benzofuran-5-yl}-1H-pyrazolo[3,4-d]pyrimidine]
> 7.00: all assays above

COc1cc(OC)c(Cl)c(-c2ncc3c(-c4ccc5c(c4)CN([C@H]4CC[C@@H](O)CC4)C5=O)n[nH]c3n2)c1Cl [Example 22, 5-[6-(2,6-Dichloro-3,5-dimethoxyphenyl)-1H-pyrazolo[3,4-d]pyrimidin-3-yl]-2-(cis-4-hydroxycyclohexyl)isoindolin-1-one]
> 7.00: all assays above

COc1cc(OC)c(Cl)c(-c2cc3[nH]nc(-c4cnn(C[C@H](C)O)c4)c3cn2)c1Cl [Example 51, (2S)-1-{4-[6-(2,6-Dichloro-3,5-dimethoxyphenyl)-1H-pyrazolo[4,3-c]pyridin-3-yl]-1H-pyrazol-1-yl}propan-2-ol]
> 7.00: all assays above

COc1cc(OC)c(F)c(-c2ncc3c(-c4ccc5c(c4)CN(C(C)C)C5=O)n[nH]c3n2)c1F [Example 78, 5-[6-(2,6-Difluoro-3,5-dimethoxyphenyl)-1H-pyrazolo[3,4-d]pyrimidin-3-yl]-2-isopropylisoindolin-1-one]
> 7.00: all assays above

COc1cc(OC)c(Cl)c(-c2cc3[nH]nc(-c4cnn(CC(=O)NC5CC5)c4)c3cn2)c1Cl [Example 38, N-Cyclopropyl-2-{4-[6-(2,6-dichloro-3,5-dimethoxyphenyl)-1H-pyrazolo[4,3-c]pyridin-3-yl]-1H-pyrazol-1-yl}acetamide]
> 7.00: all assays above
